System: NRK-52E
Assay: Cytoprotective activity against LPS-induced NRK-52E cells assessed as reduction in cell death measured every 5 min for 72 hrs by xCELLigence based RTCA analysis
Assay type: functional
Conditions: Rattus norvegicus

SMILES: CC1=CC(=O)CC(C)(C)[C@H]1CO[C@@H]1O[C@H](CO)[C@@H](O)[C@H](O)[C@H]1O
- EC50: 1.2 µM

SMILES: C=C(C)[C@@H]1CC[C@@H]2[C@]3(CC[C@]4(C)[C@@H]([C@@H]5CC[C@H]([C@](C)(O)CO)OC5)CC[C@@]24C)C[C@]13CCC(=O)OC
- EC50: > 100 µM

SMILES: CC1=C(C(=O)O)C(C)(C)C=CC1=O
- EC50: > 100 µM

SMILES: C=C(C)[C@@H]1CC[C@@H]2[C@]3(CC[C@]4(C)[C@@H]([C@H](CO)CC/C=C(/C)CO)CC[C@@]24C)C[C@]13CCC(=O)O
- EC50: 11.5 µM

SMILES: CC1=C(C(=O)O)C(C)(C)C[C@H](O)[C@@H]1O
- EC50: 0.146 µM

SMILES: C[C@@H]1CC[C@]2(C(=O)O)CC[C@]3(C)C(=CC[C@@H]4[C@@]5(C)CC[C@H](O)[C@@](C)(CO)[C@@H]5[C@H](O)C[C@]43C)[C@@H]2[C@]1(C)O
- EC50: > 100 µM

SMILES: CC1=C(CO)C(C)(C)C[C@H](O)[C@@H]1O
- EC50: > 100 µM

SMILES: C[C@@H]1CC[C@]2(C(=O)O)CC[C@]3(C)C(=CC[C@@H]4[C@@]5(C)CC[C@H](O)C(CO)(CO)[C@@H]5CC[C@]43C)[C@@H]2[C@]1(C)O
- EC50: 1.6 µM

SMILES: Cc1c(C)c2c(c(C)c1O)CCC(C)(C(=O)O)O2 (stereo unspecified) [TROLOX]
- EC50: 1.9 µM

SMILES: Cc1ccc2c(c1C)C1=CC[C@@H]3[C@@]4(C)CC[C@H](O)C(CO)(CO)[C@@H]4CC[C@@]3(C)[C@]1(C)C[C@@H]2O
- EC50: > 100 µM

SMILES: COc1cc(/C=C/C(=O)OC[C@H]2O[C@@H](OC[C@H]3C(C)=CC(=O)CC3(C)C)[C@H](O)[C@@H](O)[C@@H]2O)cc(OC)c1O
- EC50: 35.6 µM

SMILES: C=C(CO)[C@@H]1CC[C@@H]2[C@]3(CC[C@]4(C)[C@@H]([C@H](CO)CC/C=C(/C)CO)CC[C@@]24C)C[C@]13CCC(=O)OC
- EC50: > 100 µM

SMILES: CC1(C)CC(O)CC2=C1C(=O)OC2 (stereo unspecified)
- EC50: > 100 µM

SMILES: C=C1C(CO[C@@H]2O[C@H](COC(=O)/C=C/c3cc(OC)c(O)c(OC)c3)[C@@H](O)[C@H](O)[C@H]2O)=CC(=O)CC1(C)C
- EC50: > 100 µM

SMILES: C=C(C)[C@@H]1CC[C@@H]2[C@]3(CC[C@]4(C)[C@@H]([C@H](CO)CC/C=C(/C)CO)CC[C@@]24C)C[C@]13CCC(=O)OC
- EC50: > 100 µM

SMILES: C[C@H]1[C@H](C)CC[C@]2(C(=O)O)CC[C@]3(C)C(=CC[C@@H]4[C@@]5(C)CC[C@H](O)[C@@](C)(CO)[C@@H]5CC[C@]43C)[C@H]12
- EC50: > 100 µM

SMILES: CO[C@H]1C[C@]2(C)C(=CC[C@@H]3[C@@]4(C)CC[C@H](O)C(CO)(CO)[C@@H]4CC[C@]32C)c2c1ccc(C)c2C
- EC50: > 100 µM

SMILES: CC1(C)CC[C@]2(C(=O)O)CC[C@]3(C)C(=CC[C@@H]4[C@@]5(C)CC[C@H](O)[C@@](C)(CO)[C@@H]5[C@H](O)C[C@]43C)[C@@H]2[C@@H]1O
- EC50: 0.118 µM

SMILES: CC1(C)CC(=O)C=C(C(=O)O)[C@]1(C)O
- EC50: > 100 µM

SMILES: CC1=C(C(=O)O[C@@H]2O[C@H](CO)[C@@H](O)[C@H](O)[C@H]2O)C(C)(C)CC[C@@H]1O
- EC50: > 100 µM

SMILES: CC1=C(CO)C(C)(C)C[C@H](O)[C@H]1O
- EC50: > 100 µM

SMILES: CC1=CC(=O)CC(C)(C)[C@]1(O)CO
- EC50: > 100 µM

SMILES: CC1=C(CO)C(C)(C)C[C@H](O)[C@@H]1O[C@@H]1O[C@H](CO)[C@@H](O)[C@H](O)[C@H]1O
- EC50: > 100 µM

SMILES: CC1(C)CC(=O)C=C(C(=O)O)[C@@]1(C)O
- EC50: > 100 µM

SMILES: COC(=O)CC[C@]12C[C@]13CC[C@]1(C)[C@@H]([C@H](CO)CC/C=C(/C)CO)CC[C@@]1(C)[C@@H]3CC[C@H]2C(C)(C)O
- EC50: 26.8 µM

SMILES: CC1=C(C(=O)O)C(C)(C)[C@@H](O)[C@H](O)C1
- EC50: > 100 µM

SMILES: CC1=CC(=O)CC(C)(C)[C@@H]1CO
- EC50: 1.4 µM

SMILES: C[C@@H]1CC[C@]2(C(=O)O)CC[C@]3(C)C(=CC[C@@H]4[C@@]5(C)CC[C@H](O)C(C)(C)[C@@H]5CC[C@]43C)[C@@H]2[C@]1(C)O [POMOLIC ACID]
- EC50: 0.0142 µM

SMILES: CC1=CC(=O)CC(C)(C)[C@@H]1CO[C@@H]1O[C@H](CO)[C@@H](O)[C@H](O)[C@H]1O
- EC50: > 100 µM

SMILES: C=C(C)[C@@H]1CC[C@@H]2[C@]3(CC[C@]4(C)[C@@H]([C@@H]5CC[C@H]([C@](C)(O)CO)OC5)CC[C@@]24C)C[C@]13CCC(=O)O
- EC50: 38.4 µM

SMILES: CC1(C)C[C@H](O)[C@H](O[C@@H]2O[C@H](CO)[C@@H](O)[C@H](O)[C@H]2O)C2=C1C(=O)OC2
- EC50: > 100 µM
